From patent US20230043863A1, “HETEROAROMATIC DERIVATIVES FOR USE AS REGULATOR, PREPARATION METHOD THEREFOR AND USE THEREOF” (JIANGSU HANSOH PHARMACEUTICAL GROUP CO., LTD., priority 2018, published 2023)

Tests used:
JAK1 = JAK1 (Homo sapiens, UniProt P23458); test: JAK kinase activity inhibition, TR-FRET (JAK1); format: biochemical; settings: TR-FRET kinase assay
Experimental: (§1) Experimental objective: The objective of this test is to test the inhibitory effect of the compound on JAK kinase activity.
(§2) Experimental method: the fluorescence resonance energy transfer (TR-FRET) method was used to test the inhibitory effect of the compound on JAK kinase activity, and the half inhibitory concentration IC50 of the compound on JAK kinase activity was obtained.
(§3) Kinase reaction was carried out in a white 384-well plate (PerkinElmer). 1-5 μL of different concentrations of the compound diluted with DMSO and ddH2O was added into each well, and 1-5 μL of the corresponding solvent was added to the positive control wells, followed by addition of 0.1-20 nM JAK kinase solution diluted with 1-5 μL of kinase buffer (HEPES 50-250 mM, MgCl2 5-20 mM, etc.) was added to each well. 1-5 μL of kinase buffer was added to the negative control well. 1-5 μL of substrate mixture containing peptide substrate and ATP was added. The plate was incubated at room temperature for 0.5-5 hours. […], EDTA and detection solution containing labeled antibody was added, and then the plate was incubated at room temperature for another 1-24 hours. The fluorescence signal value at about 620 nm and 665 nm of each well was measured by BioTek Synergy H1 plate reader, and the inhibition rate was calculated by the fluorescence signal value. According to the inhibition rate of different concentrations, the IC50 of the compound was obtained by curve fitting.
(§4) The percentage inhibition data of the wells treated with the compound was calculated with the positive control wells (DMSO control wells) and negative control wells (no kinase added) on the plate {% inhibition rate=100-[(test compound value-negative control value)]/(Positive control value-negative control value)×100}. IC50 value was calculated by using GraphPad prism to fit the data of different concentrations and corresponding percentage inhibition rates to a 4-parameter non-linear logic formula.

TYK2 = TYK2 (Homo sapiens, UniProt P29597); test: JAK kinase activity inhibition, TR-FRET (TYK2); format: biochemical; settings: TR-FRET kinase assay
Sequence of TYK2 (P29597 whole entry): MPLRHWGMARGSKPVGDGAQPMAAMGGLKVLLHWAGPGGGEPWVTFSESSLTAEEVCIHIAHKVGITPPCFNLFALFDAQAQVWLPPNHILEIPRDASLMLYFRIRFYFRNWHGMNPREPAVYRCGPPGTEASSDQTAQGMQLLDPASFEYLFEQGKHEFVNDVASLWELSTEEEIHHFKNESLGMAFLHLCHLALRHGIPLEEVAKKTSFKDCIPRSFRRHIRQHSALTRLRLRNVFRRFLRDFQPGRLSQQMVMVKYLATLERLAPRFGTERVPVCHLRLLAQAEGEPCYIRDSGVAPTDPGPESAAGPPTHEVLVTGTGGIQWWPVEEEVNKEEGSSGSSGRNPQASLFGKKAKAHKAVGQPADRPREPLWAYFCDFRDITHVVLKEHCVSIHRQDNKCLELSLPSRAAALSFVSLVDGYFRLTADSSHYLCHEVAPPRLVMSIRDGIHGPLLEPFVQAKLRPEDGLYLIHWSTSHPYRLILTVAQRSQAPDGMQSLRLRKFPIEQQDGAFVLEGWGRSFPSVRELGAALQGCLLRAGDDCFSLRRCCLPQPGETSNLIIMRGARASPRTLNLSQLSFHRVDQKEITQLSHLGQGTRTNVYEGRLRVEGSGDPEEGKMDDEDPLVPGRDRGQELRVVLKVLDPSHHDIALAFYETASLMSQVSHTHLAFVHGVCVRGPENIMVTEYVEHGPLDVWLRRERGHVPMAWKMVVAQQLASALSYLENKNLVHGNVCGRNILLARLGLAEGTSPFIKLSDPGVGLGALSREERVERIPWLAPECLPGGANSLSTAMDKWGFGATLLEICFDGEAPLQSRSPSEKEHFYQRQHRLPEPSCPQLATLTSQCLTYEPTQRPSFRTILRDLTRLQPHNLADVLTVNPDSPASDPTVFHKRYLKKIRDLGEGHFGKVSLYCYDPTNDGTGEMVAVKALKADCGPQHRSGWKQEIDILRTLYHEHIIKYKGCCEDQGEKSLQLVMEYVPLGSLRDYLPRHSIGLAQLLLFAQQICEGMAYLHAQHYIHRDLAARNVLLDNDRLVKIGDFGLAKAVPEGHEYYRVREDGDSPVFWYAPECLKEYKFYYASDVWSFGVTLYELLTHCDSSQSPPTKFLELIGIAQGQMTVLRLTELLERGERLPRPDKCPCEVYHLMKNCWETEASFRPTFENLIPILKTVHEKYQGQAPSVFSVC
Experimental: as §1, §2, §3, §4

Sequence of JAK1 (P23458 whole entry): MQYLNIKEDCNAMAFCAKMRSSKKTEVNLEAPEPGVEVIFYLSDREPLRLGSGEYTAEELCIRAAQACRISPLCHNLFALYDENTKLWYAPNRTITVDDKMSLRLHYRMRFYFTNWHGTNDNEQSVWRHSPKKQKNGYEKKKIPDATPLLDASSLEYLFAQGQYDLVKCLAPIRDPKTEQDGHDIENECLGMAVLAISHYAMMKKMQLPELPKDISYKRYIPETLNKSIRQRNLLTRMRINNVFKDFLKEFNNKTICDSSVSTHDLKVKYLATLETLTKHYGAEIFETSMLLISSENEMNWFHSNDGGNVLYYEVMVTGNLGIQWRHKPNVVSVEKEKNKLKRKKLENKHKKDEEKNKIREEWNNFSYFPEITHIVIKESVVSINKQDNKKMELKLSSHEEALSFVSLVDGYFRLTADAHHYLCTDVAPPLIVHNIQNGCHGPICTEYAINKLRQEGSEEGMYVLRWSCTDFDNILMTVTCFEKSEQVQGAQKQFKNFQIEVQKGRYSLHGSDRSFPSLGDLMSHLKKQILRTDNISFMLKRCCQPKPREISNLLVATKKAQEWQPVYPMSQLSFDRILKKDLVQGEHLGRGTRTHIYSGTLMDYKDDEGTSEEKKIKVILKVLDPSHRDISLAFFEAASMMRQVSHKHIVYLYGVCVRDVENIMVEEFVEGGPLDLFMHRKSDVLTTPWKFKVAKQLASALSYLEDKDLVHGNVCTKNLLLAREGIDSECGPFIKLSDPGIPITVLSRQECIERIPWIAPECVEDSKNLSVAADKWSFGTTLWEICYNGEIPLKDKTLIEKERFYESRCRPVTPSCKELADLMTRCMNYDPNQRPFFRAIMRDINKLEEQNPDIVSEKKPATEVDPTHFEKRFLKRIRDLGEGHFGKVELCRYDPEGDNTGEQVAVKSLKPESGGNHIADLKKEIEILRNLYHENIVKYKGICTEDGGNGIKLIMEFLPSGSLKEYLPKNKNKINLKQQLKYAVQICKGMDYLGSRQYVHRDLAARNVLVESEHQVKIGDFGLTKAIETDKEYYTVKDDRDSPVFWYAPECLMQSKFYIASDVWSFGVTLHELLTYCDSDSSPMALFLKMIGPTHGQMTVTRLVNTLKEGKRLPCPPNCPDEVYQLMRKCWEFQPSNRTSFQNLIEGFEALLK

| SMILES | IC50 (JAK1) [nM] | IC50 (TYK2) [nM] |
| --- | --- | --- |
| N#CCCN1[C@@H]2CC[C@H]1C[C@H](Nc1nc(Nc3ncc(CCO)s3)cc3ncccc13)C2 [Embodiment 161, 3-((3-exo)-3-((7-((5-(2-hydroxylethyl)thiazol-2-yl)amino)-1,6-diazanaphthalen-5-yl)amino)-8-azabicyclo[3.2.1]oct-8-yl)propionitrile] | 20.8 | 35 |
| O=C(CN1CCCC1)N1[C@@H]2CCC[C@H]1C[C@H](Nc1nc(Nc3ncc(CO)s3)cc3ncccc13)C2 [Embodiment 164, 1-((3-exo)-3-((7-((5-(hydroxymethyl)thiazol-2-yl)amino)-1,6-diazanaphthalen-5-yl)amino)-9-azabicyclo[3.3.1]non-9-yl)-2-(pyrrolidin-1-yl)ethane-1-one] | 0.85 | 16.6 |
| O=C(CN1CCCCC1)N1[C@@H]2CC[C@H]1C[C@H](Nc1nc(Nc3ncc(CO)s3)cc3ncccc13)C2 [Embodiment 165, 1-((3-exo)-3-((7-((5-(hydroxymethyl)thiazol-2-yl)amino)-1,6-diazanaphthalen-5-yl)amino)-8-azabicyclo[3.2.1]oct-8-yl)-2-(piperidin-1-yl)ethane-1-one] | 4.92 | > 100 |
| Cc1cc(Nc2nc(N[C@@H]3C[C@H]4CC[C@@H](C3)N4CCC#N)nc3cccc(Cl)c23)n[nH]1 [Embodiment 175, 3-((3-exo)-3-((5-chloro-4-((5-methyl-1H-pyrazol-3-yl)amino)quinazolin-2-yl)amino)-8-azabicyclo[3.2.1]oct-8-yl)propionitrile] | > 100 | 42.8 |
| Cc1cc(Nc2nc(N[C@@H]3C[C@H]4CC[C@@H](C3)N4CCC#N)nc3c(C)cccc23)n[nH]1 [Embodiment 176, 3-((3-exo)-3-((8-methyl-4-((5-methyl-1H-pyrazol-3-yl)amino)quinazolin-2-yl)amino)-8-azabicyclo[3.2.1]oct-8-yl)propionitrile] | 4.18 | 2.36 |
| Cc1cc(Nc2nc(N[C@@H]3C[C@H]4CC[C@@H](C3)N4CCC#N)nc3c(Cl)cccc23)n[nH]1 [Embodiment 177, 3-((3-exo)-3-((8-chloro-4-((5-methyl-1H-pyrazol-3-yl)amino)quinazolin-2-yl)amino)-8-azabicyclo[3.2.1]oct-8-yl)propionitrile] | 3.36 | 1.58 |
| Cc1cc(Nc2nc(N[C@@H]3C[C@H]4CC[C@@H](C3)N4CCC#N)nc3cc(-c4ccncc4)ccc23)n[nH]1 [Embodiment 180, 3-((3-exo)-3-((4-((5-methyl-1H-pyrazol-3-yl)amino)-7-(pyridin-4-yl)quinazolin-2-yl)amino)-8-azabicyclo[3.2.1]oct-8-yl)propionitrile] | 0.35 | 0.56 |
| COc1ccc(-c2ccc3c(Nc4cc(C)[nH]n4)nc(N[C@@H]4C[C@H]5CC[C@@H](C4)N5CCC#N)nc3c2)cn1 [Embodiment 183, 3-((3-exo)-3-((7-(6-methoxylpyridin-3-yl)-4-((5-methyl-1H-pyrazol-3-yl)amino)quinazolin-2-yl)amino)-8-azabicyclo[3.2.1]oct-8-yl)propionitrile] | 0.18 | 0.1 |
| Cc1cc(Nc2nc(N[C@@H]3C[C@H]4CC[C@@H](C3)N4CCC#N)nc3cc(-c4ccccc4)ccc23)n[nH]1 [Embodiment 184, 3-((3-exo)-3-((4-((5-methyl-1H-pyrazol-3-yl)amino)-7-phenylquinazolin-2-yl)amino)-8-azabicyclo[3.2.1]oct-8-yl)propionitrile] | 0.14 | 0.48 |
| Cc1cc(Nc2nc(N[C@@H]3C[C@H]4CC[C@@H](C3)N4CCC#N)nc3cc(-c4cnn(C5CC5)c4)ccc23)n[nH]1 [Embodiment 185, 3-((3-exo)-3-((7-(1-cyclopropyl-1H-pyrazol-4-yl)-4-((5-methyl-1H-pyrazol-3-yl)amino)quinazolin-2-yl)amino)-8-azabicyclo[3.2.1]oct-8-yl)propionitrile] | 0.29 | 0.6 |
| Cc1cc(Nc2nc(N[C@@H]3C[C@H]4CC[C@@H](C3)N4CCC#N)nc3cc(-n4ccnc4)ccc23)n[nH]1 [Embodiment 203, 3-((3-exo)-3-((7-(1H-imidazol-1-yl)-4-((5-methyl-1H-pyrazol-3-yl)amino)quinazolin-2-yl)amino)-8-azabicyclo[3.2.1]oct-8-yl)propionitrile] | 0.23 | 0.19 |
| Cc1cc(Nc2nc(N[C@@H]3C[C@H]4CC[C@@H](C3)N4S(=O)(=O)N3CC(C#N)C3)nc3cc(C4CC4)ccc23)n[nH]1 [Embodiment 216, 1-(((3-exo)-3-((7-cyclopropyl-4-((5-methyl-1H-pyrazol-3-yl)amino)quinazolin-2-yl)amino)-8-azabicyclo[3.2.1]oct-8-yl)sulfonyl)azetindin-3-formonitrile] | 0.04 | 0.48 |
| Cc1cnc(Nc2nc(N[C@@H]3C[C@H]4CC[C@@H](C3)N4S(=O)(=O)N3CC(C#N)C3)nc3ccccc23)s1 [Embodiment 221, 1-(((3-exo)-3-((4-((5-methylthioazole-2-yl)amino)quinazolin-2-yl)amino)-8-azabicyclo[3.2.1]oct-8-yl)sulfonyl)azetindin-3-formonitrile] | 0.79 | 1.26 |
| Cc1cc(Nc2nc(N[C@@H]3C[C@H]4CC[C@@H](C3)N4C(=O)CN(C)C)nc3cc(Cl)ccc23)n[nH]1 [Embodiment 224] | 1.76 | > 100 |
| Cc1cc(Nc2nc(N[C@@H]3C[C@H]4CC[C@@H](C3)N4C(=O)CN(C)C)nc3ccccc23)n[nH]1 [Embodiment 225, 2-(dimethylamine)-1-((3-exo)-3-((4-((5-methyl-1H-pyrazol-3-yl)amino)quinazolin-2-yl)amino)-8-azabicyclo[3.2.1]oct-8-yl)ethane-1-one] | 9.16 | 0.94 |
| Cc1cc(Nc2nc(N[C@@H]3C[C@H]4CC[C@@H](C3)N4C(=O)c3cccnc3)nc3ccccc23)n[nH]1 [Embodiment 227, ((3-exo)-3-((4-((5-methyl-1H-pyrazol-3-yl)amino)quinazolin-2-yl)amino)-8-azabicyclo[3.2.1]oct-8-yl)(pyridin-3-yl)methanone] | 5.17 | 4.77 |
| Cc1cc(Nc2nc(N[C@@H]3C[C@H]4CC[C@@H](C3)N4C(=O)C(F)F)nc3ccccc23)n[nH]1 [Embodiment 231, 2,2-difluoro-1-((3-exo)-3-((4-((5-methyl-1H-pyrazol-3-yl)amino)quinazolin-2-yl)amino)-8-azabicyclo[3.2.1]oct-8-yl)ethane-1-one] | 11.3 | 3.78 |

Second part, the molecule after the results:

| IC50 (JAK1) [nM] | IC50 (TYK2) [nM] | SMILES |
| --- | --- | --- |
| 0.65 | 0.15 | Cc1cc(Nc2nc(N[C@@H]3C[C@H]4CC[C@@H](C3)N4CCC#N)nc3ncccc23)n[nH]1 [Embodiment 89, 3-((3-exo)-3-((4-((5-methyl-1H-pyrazol-3-yl)amino)pyrido[2,3-d]pyrimidin-2-yl)amino)-8-azabicyclo[3.2.1]oct-8-yl)propionitrile] |
| 7.23 | 21.6 | Cc1cc(Nc2nc(N[C@@H]3C[C@H]4CC[C@@H](C3)N4CCC#N)c3cccnc3n2)n[nH]1 [Embodiment 90, 3-((3-exo)-3-((2-((5-methyl-1H-pyrazol-3-yl)amino)pyrido[2,3-d]pyrimidin-4-yl)amino)-8-azabicyclo[3.2.1]oct-8-yl)propionitrile] |
| 11.7 | 6.15 | N#CCCN1[C@@H]2CC[C@H]1C[C@H](Nc1nc(Nc3ncc(C#N)s3)cc3ncccc13)C2 [Embodiment 160, 2-((5-(((3-exo)-8-(2-cyanoethyl)-8-azabicyclo[3.2.1]oct-3-yl)amino)-1,6-diazanaphthalen-7-yl)amino)thiazol-5-formonitrile] |
| 10.6 | > 100 | Cc1cc(Nc2nc(N[C@@H]3C[C@H]4CC[C@@H](C3)N4CCC#N)nc3ccc(Cl)cc23)n[nH]1 [Embodiment 178, 3-((3-exo)-3-((6-chloro-4-((5-methyl-1H-pyrazol-3-yl)amino)quinazolin-2-yl)amino)-8-azabicyclo[3.2.1]oct-8-yl)propionitrile] |
| 0.37 | 0.25 | COc1cncc(-c2ccc3c(Nc4cc(C)[nH]n4)nc(N[C@@H]4C[C@H]5CC[C@@H](C4)N5CCC#N)nc3c2)c1 [Embodiment 182] |
| 13.1 | 0.3 | Cc1cc(Nc2nc(N[C@@H]3C[C@H]4CC[C@@H](C3)N4C(=O)c3ccccn3)nc3ccccc23)n[nH]1 [Embodiment 226, ((3-exo)-3-((4-((5-methyl-1H-pyrazol-3-yl)amino)quinazolin-2-yl)amino)-8-azabicyclo[3.2.1]oct-8-yl)(pyridin-2-yl)methanone] |
| 2.63 | 9.99 | Cc1cc(Nc2nc(N[C@@H]3C[C@H]4CC[C@@H](C3)N4C(=O)c3ccncc3)nc3ccccc23)n[nH]1 [Embodiment 228, ((3-exo)-3-((4-((5-methyl-1H-pyrazol-3-yl)amino)quinazolin-2-yl)amino)-8-azabicyclo[3.2.1]oct-8-yl)(pyridin-4-yl)methanone] |
| 7.2 | 2 | Cc1cc(Nc2nc(N[C@@H]3C[C@H]4CC[C@@H](C3)N4S(=O)(=O)c3cccnc3)nc3ccccc23)n[nH]1 [Embodiment 232] |
